According to patent US4843087A (priority 1986, dated 1989):
Converted amounts (≈) assume the structure as drawn.

System: human rhinovirus (HRV) serotypes
Experiment: microbe, parasite or virus in culture
Format: cell-based
Settings: for MIC50: read-out: Rhinovirus MIC50; for IC (MIC80 of serotype panel): read-out: Rhinovirus MIC80

SMILES | MIC50 | IC (MIC80 of serotype panel)
Cc1cc(CCCCCCCCOc2ccc(C3=NCCO3)cc2)on1 [18(b), 5-{8-[4-(4,5-Dihydro-2-oxazolyl)phenoxy]octyl}-3-methylisoxazole] | 1.75 mg/L (≈ 4.91 µM) | 2.1 mg/L
C=CCC1COC(c2ccc(OCCCCCCCc3cc(C)no3)cc2)=N1 (stereo not drawn) [Example 139, 5-{7-[4-(4,5-Dihydro-4-(2-propenyl)-2-oxazolyl)phenoxy]heptyl}-3-methylisoxazole] | 0.795 mg/L (≈ 2.08 µM) | 25.9 mg/L
Cc1cc(CCCCOc2ccc(C3=NC(C)(C)CO3)cc2Cl)on1 [Example 66, 5-{4-[2-Chloro-4-(4,5-dihydro-4,4-dimethyl-2-oxazolyl)phenoxy]butyl}-3-methylisoxazole] | 0.78 mg/L (≈ 2.15 µM) | 99 mg/L
Cc1cc(CCCCCCCOc2ccc(C3=NC(C)CO3)cc2Cl)on1 (stereo not drawn) [17(b), 5-{7-[2-Chloro-4-(4,5-dihydro-4-methyl-2-oxazolyl)phenoxy]heptyl}-3-methylisoxazole] | 0.89 mg/L (≈ 2.28 µM) | 26 mg/L
Cc1cc(CCCCCCCOc2cccc(C3=NCCO3)c2)on1 [26(b), 5-{7-[3-(4,5-Dihydro-2-oxazolyl)phenoxy]heptyl}-3-methylisoxazole] | 0.94 mg/L (≈ 2.75 µM) | 1.12 mg/L
Cc1cc(CCCCCOc2c(Cl)cc(C3=NCCO3)cc2Cl)sn1 [150(b), 2-{3,5-Dichloro-4-[(5-(3-methyl-5-isothiazolyl)pentyl)oxy]phenyl}-4,5-dihydro-oxazole] | 0.12 mg/L (≈ 0.3 µM) | 0.35 mg/L
Cc1cc(CCCCCOc2ccc(C3=NCCO3)c(Cl)c2Cl)on1 [Example 72, 5-{5-[2,3-Dichloro-4-(4,5-dihydro-2-oxazolyl)phenoxy]pentyl}-3-methylisoxazole] | 0.27 mg/L (≈ 0.704 µM) | 0.69 mg/L
Cc1cc(CC/C=C\COc2c(Cl)cc(C3=NCCO3)cc2Cl)on1 [Example 112, 5-{5-[2,6-Dichloro-4-(4,5-dihydro-2-oxazolyl)phenoxy]-3-pentenyl}-3-methylisoxazole (Z-isomer)] | 0.079 mg/L (≈ 0.207 µM) | 0.74 mg/L
Cc1cc(CCCCCOc2c(C)cc(-c3nc(C)c(C)o3)cc2C)on1 [118(c), 5-{5-[4-(4,5-Dimethyl-2-oxazolyl)-2,6-dimethylphenoxy]pentyl}-3-methylisoxazole] | 0.37 mg/L (≈ 1 µM) | 0.84 mg/L
Cc1cc(CCCCCOc2ccc(C3=NCCO3)cc2C(C)(C)C)on1 [Example 76, 5-{5-[4-(4,5-Dihydro-2-oxazolyl)-2-(1,1-dimethylethyl)phenoxy]pentyl}-3-methylisoxazole] | 50.1 mg/L (≈ 135 µM) | 99 mg/L
Cc1cc(CCCCCCCOc2ccc(C3=NC[C@H](C)O3)cc2)on1 [Example 122, (S)-5-{7-[4-(4,5-Dihydro-5-methyl-2-oxazolyl)phenoxy]heptyl}-3-methylisoxazole] | 0.24 mg/L (≈ 0.673 µM) | 50.3 mg/L
CCC[C@@H]1COC(c2ccc(OCCCCCCCc3cc(C)no3)cc2)=N1 [Example 129, (R)-5-{7-[4-(4,5-Dihydro-4-propyl-2-oxazolyl)phenoxy]heptyl}-3-methylisoxazole] | 1.33 mg/L (≈ 3.46 µM) | 2.6 mg/L
CCCC[C@H]1COC(c2ccc(OCCCCCCCc3cc(C)no3)cc2)=N1 [Example 130, (S)-5-{7-[4-(4-Butyl-4,5-dihydro-2-oxazolyl)phenoxy]heptyl}-3-methylisoxazole] | 1.08 mg/L (≈ 2.71 µM) | 2.07 mg/L
Cc1cc(CCCCCCCCOc2ccc(C3=NC(C)CO3)cc2Cl)on1 (stereo not drawn) [27(b)] | 0.405 mg/L (≈ 1 µM) | 25.8 mg/L
Cc1cc(CCCCCOc2ccc(C3=NC(C)(C)CO3)cc2Cl)on1 [Example 57, 5-{5-[2-Chloro-4-(4,5-dihydro-4,4-dimethyl-2-oxazolyl)phenoxy]pentyl}-3-methylisoxazole] | 50.1 mg/L (≈ 133 µM) | 99 mg/L
Cc1cc(CCCCCCCOc2ccc(C3=NCC(CCl)O3)cc2)on1 (stereo not drawn) [Example 39, 5-{7-[4-(5-Choromethyl-4,5-dihydro-2-oxazolyl)phenoxy]heptyl}-3-methylisoxazole] | 0.87 mg/L (≈ 2.23 µM) | 99 mg/L
Cc1cc(CCCCCCCOc2ccc(C3=NC(CCl)CO3)cc2)on1 (stereo not drawn) [Example 140, 5-{7-[4-(4-Chloromethyl-4,5-dihydro-2-oxazolyl)phenoxy]heptyl}-3-methylisoxazole] | 0.49 mg/L (≈ 1.25 µM) | 26.9 mg/L
Cc1cc(CCCCCOc2c(Cl)cc(C3=NC(CO)CO3)cc2Cl)on1 (stereo not drawn) [Example 138, 5-{5-[2,6-Dichloro-4-(4,5-dihydro-4-hydroxymethyl-2-oxazolyl)phenoxy]pentyl}-3-methylisoxazole] | 0.2 mg/L (≈ 0.484 µM) | 1.2 mg/L
Cc1cc(CCCC(C)Oc2c(Cl)cc(C3=NCCO3)cc2Cl)on1 (stereo not drawn) [Example 110, 5-{4-[2,6-Dichloro-4-(4,5-dihydro-2-oxazolyl)phenoxy]pentyl}-3-methylisoxazole] | 0.24 mg/L (≈ 0.626 µM) | 0.64 mg/L
Cc1cc(CCCCOc2ccc(C3=NC(C)CO3)cc2Cl)on1 (stereo not drawn) [Example 65, 5-{4-[2-Chloro-4-(4,5-dihydro-4-methyl-2-oxazolyl)phenoxy]butyl}-3-methylisoxazole] | 0.26 mg/L (≈ 0.745 µM) | 0.45 mg/L

SMILES | MIC50 | IC (MIC80 of serotype panel)
Cc1cc(CCCCOc2c(Cl)cc(-c3nc(C)c(C)o3)cc2Cl)on1 [Example 120, 5-{4-[2,6-Dichloro-4-(4,5-dimethyl-2-oxazolyl)phenoxy]butyl}-3-methylisoxazole] | 0.16 mg/L (≈ 0.405 µM) | 0.67 mg/L
Cc1cc(CCCCCCCOc2ccc(C3=N[C@H](C(C)C)CO3)cc2)on1 [Example 127, (R)-5-{7-[4-(4,5-Dihydro-4-isopropyl-2-oxazolyl)phenoxy]heptyl}-3-methylisoxazole] | 0.76 mg/L (≈ 1.98 µM) | 1.4 mg/L
Cc1cc(CCCCCCCOc2ccc(C3=N[C@@H](C(C)C)CO3)cc2)on1 [Example 126, (S)-5-{7-[4-(4,5-Dihydro-4-isopropyl-2-oxazolyl)phenoxy]heptyl}-3-methylisoxazole] | 1.23 mg/L (≈ 3.2 µM) | 26.2 mg/L
Cc1cc(CCCCCCCOc2ccc(C3=NCC(CO)O3)cc2)on1 (stereo not drawn) [Example 23, 5-{7-[4-(4,5-Dihydro-5-hydroxymethyl-2-oxazolyl)phenoxy]heptyl}-3-methylisoxazole] | 1.55 mg/L (≈ 4.16 µM) | 2.9 mg/L
Cc1cc(CCCCCCCOc2ccc(C3=NC(C)(C)CO3)cc2)on1 [Example 5, 5-{7-[4-(4,5-Dihydro-4,4-dimethyl-2oxazolyl)phenoxy]heptyl}-3-methylisoxazole] | 1.3 mg/L (≈ 3.51 µM) | 99 mg/L
Cc1cc(CCCCCCCOc2ccc(C3=N[C@@H](C)CO3)cc2)on1 [Example 4, (-)-5-{7-[4-(4,5-Dihydro-4-methyl-2oxazolyl)phenoxy]heptyl}-3-methylisoxazole] | 0.025 mg/L (≈ 0.0701 µM) | 0.03 mg/L
CC[C@H]1COC(c2ccc(OCCCCCCCc3cc(C)no3)cc2)=N1 [Example 124, (S)-5-{7-[4-(4-Ethyl-4,5-dihydro-2oxazolyl)phenoxy]heptyl}-3-methylisoxazole] | 0.36 mg/L (≈ 0.972 µM) | 2.4 mg/L
CC[C@@H]1COC(c2ccc(OCCCCCCCc3cc(C)no3)cc2)=N1 [Example 125, (R)-5-{7-[4-(4-Ethyl-4,5-dihydro-2-oxazolyl)phenoxy]heptyl}-3-methylisoxazole] | 0.69 mg/L (≈ 1.86 µM) | 2.3 mg/L
Cc1cc(CCCCCOc2c(C)cc(C3=NCCO3)c(Cl)c2C)on1 [Example 160, 5-{5-[3-Chloro-4-(4,5-dihydro-2-oxazolyl)-2,6-dimethylphenoxy]pentyl}-3-methylisoxazole] | 0.24 mg/L (≈ 0.637 µM) | 0.4 mg/L
CCC[C@H]1COC(c2ccc(OCCCCCCCc3cc(C)no3)cc2)=N1 [Example 128, (S)-5-{7-[4-(4,5-Dihydro-4-propyl-2-oxazolyl)phenoxy]heptyl}-3-methylisoxazole] | 0.245 mg/L (≈ 0.637 µM) | 27.1 mg/L
Cc1cc(CCCCCOc2ccc(-c3nc(C)c(C)o3)cc2C(F)(F)F)on1 [Example 91, 5-{5-[4-(4,5-Dimethyl-2-oxazolyl)-2-trifluoromethylphenoxy]pentyl}-3-methylisoxazole] | 0.75 mg/L (≈ 1.84 µM) | 1.4 mg/L
COCC1CN=C(c2ccc(OCCCCCCCc3cc(C)no3)cc2)O1 (stereo not drawn) [Example 40, 5-{7-[4-(4,5-Dihydro-5-methoxymethyl-2-oxazolyl)phenoxy]heptyl}-3-methylisoxazole] | 0.535 mg/L (≈ 1.38 µM) | 99 mg/L
Cc1cc(CCCCCOc2c(Cl)cc(C(=O)NCCCCl)cc2Cl)on1 [156(a), 3,5-Dichloro-N-(3-chloropropyl)-4-{[5-(3-methyl-5-isoxazolyl)pentyl]oxy}benzamide] | 0.795 mg/L (≈ 1.83 µM) | 99 mg/L
CCCCCCc1cc(CCOc2ccc(C3=N[C@@H](C)CO3)cc2)on1 [Example 132, (S)-5-{2-[4-(4,5-Dihydro-4-methyl-2-oxazolyl)phenoxy]ethyl}-3-hexylisoxazole] | 1.02 mg/L (≈ 2.88 µM) | 1.9 mg/L
Cc1cc(CCCCCOc2c(Cl)cc(C3=NCCO3)cc2C(F)(F)F)on1 [155(c), 5-{5-[2-Chloro-4-(4,5-dihydro-2-oxazolyl)-6-(trifluoromethyl)phenoxy]pentyl}-3-methylisoxazole] | 0.11 mg/L (≈ 0.264 µM) | 0.56 mg/L
Cc1cc(CCCCCOc2ccc(C3=N[C@@H](C)CO3)cc2)on1 [Example 121, (S)-5-{5-[4-(4,5-Dihydro-4-methyl-2-oxazolyl)phenoxy]pentyl}-3-methylisoxazole] | 0.09 mg/L (≈ 0.274 µM) | 26 mg/L
Cc1cc(CCCCCOc2c(Cl)cc(C3=NCCCO3)cc2Cl)on1 [156(b)] | 0.705 mg/L (≈ 1.77 µM) | 28.6 mg/L
OCCOCOCc1cc(CCCCCOc2c(Cl)cc(C3=NCCO3)cc2Cl)on1 [149(b), 5-{5-[2,6-Dichloro-4-(4,5-dihydro-2-oxazolyl)phenoxy]pentyl}-3-isoxazolylmethoxymethoxyethanol] | 0.13 mg/L (≈ 0.275 µM) | 1.1 mg/L
CCCC[C@@H]1COC(c2ccc(OCCCCCCCc3cc(C)no3)cc2)=N1 [Example 131, (R)-5-{7-[4-(4-Butyl-4,5-dihydro-2-oxazolyl)phenoxy]heptyl}-3-methylisoxazole] | 1.44 mg/L (≈ 3.61 µM) | 2.38 mg/L
